ChEMBL document CHEMBL4118185, “Kakeromamide A, a new cyclic pentapeptide inducing astrocyte differentiation isolated from the marine cyanobacterium Moorea bouillonii” (Bioorg Med Chem Lett, 2018)
The source made the active and inactive calls. The calls are words filed in the database; no cut-off is given here.

What was measured:
[1] = tested on: HeLa; assay: Cytotoxicity against human HeLa cells after 72 hrs by MTT assay; assay type: functional, cell-based
[2] = tested on: P388; assay: Cytotoxicity against mouse P388 cells at 10 uM after 72 hrs by MTT assay; assay type: functional, cell-based
[3] = species: Mus musculus; assay: Suppression of differentiation of mouse neuronal stem cells into neurons at 2.5 to 10 uM after 72 hrs by NeuO-Hoechst 33342 staining-based microscopic method; assay type: functional
[4] = Cytotoxicity against mouse neuronal stem cells at 2.5 to 10 after 72 hrs; assay type: cell-based
[5] = species: Mus musculus; assay: Induction of differentiation of mouse neuronal stem cells into astrocytes after 72 hrs by Hoechst 33342 staining based immunofluorescence assay; assay type: functional

**Q.** Which IC50 [1] does the source give for `CCC[C@H]1NC(=O)c2csc(n2)[C@H](C(C)C)NC(=O)[C@H](Cc2ccc(OC)cc2)N(C)C(=O)[C@H](Cc2ccc(OC)cc2)N(C)C(=O)[C@H](C(C)C)NC(=O)[C@H]1C` here?
**A.** 10 µM

**Q.** And the Activity [2]?
**A.** inactive

**Q.** What about the Activity [3] of the same molecule?
**A.** Active

**Q.** What about the Activity [4] of the same molecule?
**A.** Non-Toxic

**Q.** And the Activity [5]?
**A.** Dose-dependent effect
